Measurements reported in PubChem BioAssay AID2060902 (Molecular Pharmacology Branch, DTP, NCI, 2025).
pIC50: −log10 of the molar value.

System: 485368-065-R3-J5-PDC spheroids with HUVEC/MSC, viability
Assay: Anticancer human tumor 485368-065-R3-J5-PDC patient-derived pancreatic carcinoma cell line growth inhibition [RAS]
Conditions: for pIC50: curve of first compound; for viability, T/C: stronger effect = lower value
Outline: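 Agents were tested in combination matrices in half-log decrements from a top concentration at or near clinical Cmax (10 microM if undetermined). Targets were multi-cell spheroids of tumour lines plus HUVEC and MSC stromal cells.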
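Note: spheroids exposed to agents for seven days before readout.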

Q: CC(=O)OC12COC1CC(O)C1(C)C(=O)C(O)C3=C(C)C(OC(=O)C(O)C(NC(=O)OC(C)(C)C)c4ccccc4)CC(O)(C(OC(=O)c4ccccc4)C21)C3(C)C (centres undefined) + C=CC(=O)N1CCN(c2nc(OCC3CCCN3C)nc3c(F)c(-c4nc(N)cc(C)c4C(F)(F)F)c(Cl)cc23)C(C)C1 was tested. Which pIC50 (second compound 0.00316 µM) did it give?
A: The pIC50 was > 7.50.

Q: What about the pIC50 (second compound 0.01 µM) of the same compound?
A: Its pIC50 is > 7.50.

Q: What about the pIC50 (second compound 0.0316 µM) of the same compound?
A: The pIC50 was > 7.50.

Q: What about the pIC50 (second compound 0.1 µM) of the same compound?
A: The pIC50 was > 7.50.

Q: And the pIC50 (second compound 0.316 µM)?
A: The pIC50 was > 7.50.

Q: And the pIC50 (second compound 1 µM)?
A: The pIC50 was > 7.50.

Q: What about the viability, T/C (second compound 0.00316 µM, first compound 0.0316 µM) of the same compound?
A: The viability, T/C was 14.1%.

Q: And the viability, T/C (second compound 0.00316 µM, first compound 0.1 µM)?
A: The viability, T/C was 12.1%.

Q: What about the viability, T/C (second compound 0.00316 µM, first compound 0.316 µM) of the same compound?
A: The viability, T/C was 13.5%.

Q: And the viability, T/C (second compound 0.00316 µM, first compound 1 µM)?
A: Its viability, T/C is 12.9%.

Q: And the viability, T/C (second compound 0.00316 µM, first compound 3.16 µM)?
A: The viability, T/C was 13.9%.

Q: What about the viability, T/C (second compound 0.00316 µM, first compound 10 µM) of the same compound?
A: The viability, T/C was 18.2%.

Q: What about the viability, T/C (second compound 0.01 µM, first compound 0.0316 µM) of the same compound?
A: Its viability, T/C is 11.4%.

Q: What about the viability, T/C (second compound 0.01 µM, first compound 0.1 µM) of the same compound?
A: Its viability, T/C is 10.3%.

Q: And the viability, T/C (second compound 0.01 µM, first compound 0.316 µM)?
A: Its viability, T/C is 11.2%.

Q: What about the viability, T/C (second compound 0.01 µM, first compound 1 µM) of the same compound?
A: The viability, T/C was 11.9%.

Q: What about the viability, T/C (second compound 0.01 µM, first compound 3.16 µM) of the same compound?
A: Its viability, T/C is 11.9%.

Q: And the viability, T/C (second compound 0.01 µM, first compound 10 µM)?
A: The viability, T/C was 21.3%.

Q: And the viability, T/C (second compound 0.0316 µM, first compound 0.0316 µM)?
A: Its viability, T/C is 13.2%.

Q: What about the viability, T/C (second compound 0.0316 µM, first compound 0.1 µM) of the same compound?
A: The viability, T/C was 9.68%.

Q: And the viability, T/C (second compound 0.0316 µM, first compound 0.316 µM)?
A: Its viability, T/C is 12.2%.

Q: And the viability, T/C (second compound 0.0316 µM, first compound 1 µM)?
A: The viability, T/C was 16%.

Q: What about the viability, T/C (second compound 0.0316 µM, first compound 3.16 µM) of the same compound?
A: The viability, T/C was 16.2%.

Q: What about the viability, T/C (second compound 0.0316 µM, first compound 10 µM) of the same compound?
A: The viability, T/C was 19.9%.

Q: And the viability, T/C (second compound 0.1 µM, first compound 0.0316 µM)?
A: The viability, T/C was 10.6%.

Q: And the viability, T/C (second compound 0.1 µM, first compound 0.1 µM)?
A: Its viability, T/C is 10.8%.

Q: And the viability, T/C (second compound 0.1 µM, first compound 0.316 µM)?
A: Its viability, T/C is 13.7%.

Q: And the viability, T/C (second compound 0.1 µM, first compound 1 µM)?
A: Its viability, T/C is 10%.

Q: And the viability, T/C (second compound 0.1 µM, first compound 3.16 µM)?
A: Its viability, T/C is 17.6%.

Q: What about the viability, T/C (second compound 0.1 µM, first compound 10 µM) of the same compound?
A: Its viability, T/C is 20.2%.

Q: What about the viability, T/C (second compound 0.316 µM, first compound 0.0316 µM) of the same compound?
A: The viability, T/C was 9.72%.

Q: And the viability, T/C (second compound 0.316 µM, first compound 0.1 µM)?
A: Its viability, T/C is 13.7%.

Q: What about the viability, T/C (second compound 0.316 µM, first compound 0.316 µM) of the same compound?
A: The viability, T/C was 11.7%.

Q: And the viability, T/C (second compound 0.316 µM, first compound 1 µM)?
A: Its viability, T/C is 13%.

Q: And the viability, T/C (second compound 0.316 µM, first compound 3.16 µM)?
A: The viability, T/C was 22.9%.

Q: What about the viability, T/C (second compound 0.316 µM, first compound 10 µM) of the same compound?
A: The viability, T/C was 28.2%.

Q: And the viability, T/C (second compound 1 µM, first compound 0.0316 µM)?
A: The viability, T/C was 12.8%.

Q: What about the viability, T/C (second compound 1 µM, first compound 0.1 µM) of the same compound?
A: Its viability, T/C is 15.1%.

Q: And the viability, T/C (second compound 1 µM, first compound 0.316 µM)?
A: Its viability, T/C is 16.3%.

Q: And the viability, T/C (second compound 1 µM, first compound 1 µM)?
A: Its viability, T/C is 12.6%.

Q: And the viability, T/C (second compound 1 µM, first compound 3.16 µM)?
A: The viability, T/C was 17.3%.

Q: And the viability, T/C (second compound 1 µM, first compound 10 µM)?
A: The viability, T/C was 23.5%.

Q: How did the pIC50 (second compound 0.00316 µM) turn out when CC1(C)CCC(Nc2ncc(C(F)(F)F)c(-c3c[nH]c4c(P(C)(C)=O)c(C#N)ccc34)n2)CN1 (centres undefined) + C=CC(=O)N1CCN(c2nc(OCC3CCCN3C)nc3c(F)c(-c4nc(N)cc(C)c4C(F)(F)F)c(Cl)cc23)C(C)C1 was run?
A: The pIC50 was 8.63.

Q: What about the pIC50 (second compound 0.01 µM) of the same compound?
A: The pIC50 was 8.58.

Q: And the pIC50 (second compound 0.0316 µM)?
A: Its pIC50 is 8.43.

Q: And the pIC50 (second compound 0.1 µM)?
A: Its pIC50 is 8.40.

Q: What about the pIC50 (second compound 0.316 µM) of the same compound?
A: The pIC50 was 8.54.

Q: And the pIC50 (second compound 1 µM)?
A: The pIC50 was 8.40.

Q: What about the viability, T/C (second compound 0.00316 µM, first compound 0.000949 µM) of the same compound?
A: The viability, T/C was 92.5%.

Q: What about the viability, T/C (second compound 0.00316 µM, first compound 0.003 µM) of the same compound?
A: The viability, T/C was 39.1%.

Q: And the viability, T/C (second compound 0.00316 µM, first compound 0.00949 µM)?
A: The viability, T/C was 26.9%.

Q: What about the viability, T/C (second compound 0.00316 µM, first compound 0.03 µM) of the same compound?
A: The viability, T/C was 26.3%.

Q: And the viability, T/C (second compound 0.00316 µM, first compound 0.0949 µM)?
A: Its viability, T/C is 30.9%.

Q: What about the viability, T/C (second compound 0.00316 µM, first compound 0.3 µM) of the same compound?
A: The viability, T/C was 27.9%.

Q: What about the viability, T/C (second compound 0.01 µM, first compound 0.000949 µM) of the same compound?
A: The viability, T/C was 87.5%.

Q: What about the viability, T/C (second compound 0.01 µM, first compound 0.003 µM) of the same compound?
A: The viability, T/C was 44.9%.

Q: What about the viability, T/C (second compound 0.01 µM, first compound 0.00949 µM) of the same compound?
A: The viability, T/C was 26.5%.

Q: What about the viability, T/C (second compound 0.01 µM, first compound 0.03 µM) of the same compound?
A: The viability, T/C was 28.2%.

Q: What about the viability, T/C (second compound 0.01 µM, first compound 0.0949 µM) of the same compound?
A: Its viability, T/C is 28.2%.

Q: And the viability, T/C (second compound 0.01 µM, first compound 0.3 µM)?
A: Its viability, T/C is 29.1%.

Q: And the viability, T/C (second compound 0.0316 µM, first compound 0.000949 µM)?
A: The viability, T/C was 73.6%.

Q: And the viability, T/C (second compound 0.0316 µM, first compound 0.003 µM)?
A: Its viability, T/C is 54%.

Q: And the viability, T/C (second compound 0.0316 µM, first compound 0.00949 µM)?
A: The viability, T/C was 32.8%.

Q: What about the viability, T/C (second compound 0.0316 µM, first compound 0.03 µM) of the same compound?
A: Its viability, T/C is 30.6%.

Q: And the viability, T/C (second compound 0.0316 µM, first compound 0.0949 µM)?
A: Its viability, T/C is 30.8%.

Q: What about the viability, T/C (second compound 0.0316 µM, first compound 0.3 µM) of the same compound?
A: Its viability, T/C is 28.2%.

Q: And the viability, T/C (second compound 0.1 µM, first compound 0.000949 µM)?
A: The viability, T/C was 83.5%.

Q: And the viability, T/C (second compound 0.1 µM, first compound 0.003 µM)?
A: Its viability, T/C is 55.5%.

Q: And the viability, T/C (second compound 0.1 µM, first compound 0.00949 µM)?
A: The viability, T/C was 32.3%.

Q: What about the viability, T/C (second compound 0.1 µM, first compound 0.03 µM) of the same compound?
A: Its viability, T/C is 30.9%.

Q: And the viability, T/C (second compound 0.1 µM, first compound 0.0949 µM)?
A: The viability, T/C was 30.5%.

Q: What about the viability, T/C (second compound 0.1 µM, first compound 0.3 µM) of the same compound?
A: The viability, T/C was 34.3%.

Q: And the viability, T/C (second compound 0.316 µM, first compound 0.000949 µM)?
A: Its viability, T/C is 100%.

Q: What about the viability, T/C (second compound 0.316 µM, first compound 0.003 µM) of the same compound?
A: Its viability, T/C is 48.4%.

Q: And the viability, T/C (second compound 0.316 µM, first compound 0.00949 µM)?
A: Its viability, T/C is 32.6%.

Q: And the viability, T/C (second compound 0.316 µM, first compound 0.03 µM)?
A: The viability, T/C was 28.4%.

Q: And the viability, T/C (second compound 0.316 µM, first compound 0.0949 µM)?
A: Its viability, T/C is 30.6%.

Q: What about the viability, T/C (second compound 0.316 µM, first compound 0.3 µM) of the same compound?
A: Its viability, T/C is 27.4%.

Q: What about the viability, T/C (second compound 1 µM, first compound 0.000949 µM) of the same compound?
A: The viability, T/C was 87.1%.

Q: And the viability, T/C (second compound 1 µM, first compound 0.003 µM)?
A: Its viability, T/C is 55.1%.

Q: And the viability, T/C (second compound 1 µM, first compound 0.00949 µM)?
A: Its viability, T/C is 35.8%.

Q: And the viability, T/C (second compound 1 µM, first compound 0.03 µM)?
A: The viability, T/C was 25.6%.

Q: What about the viability, T/C (second compound 1 µM, first compound 0.0949 µM) of the same compound?
A: The viability, T/C was 32.1%.

Q: What about the viability, T/C (second compound 1 µM, first compound 0.3 µM) of the same compound?
A: Its viability, T/C is 34.2%.
